Experimental data reported in PMC8955773 (Pharmaceuticals, 2022).
“And” between values parts separate entries of the source, which are not always exact repeats. Identical values can stand only once. “Also recorded” adds a separate entry of the source. Like-named read-outs stand apart in the source and are kept apart here.

Assays:
[1] = biological target: T1, Butyrylcholinesterase (EC 3.1.1.8, BChE) from equine serum (eqBChE) (Equus caballus, UniProt P81908)
T1 construct: Butyrylcholinesterase (EC 3.1.1.8, BChE) was from equine serum (eqBChE) (Sigma-Aldrich); purchased Sigma-Aldrich; host or cells: equine serum
T1 sequence (P81908 whole entry): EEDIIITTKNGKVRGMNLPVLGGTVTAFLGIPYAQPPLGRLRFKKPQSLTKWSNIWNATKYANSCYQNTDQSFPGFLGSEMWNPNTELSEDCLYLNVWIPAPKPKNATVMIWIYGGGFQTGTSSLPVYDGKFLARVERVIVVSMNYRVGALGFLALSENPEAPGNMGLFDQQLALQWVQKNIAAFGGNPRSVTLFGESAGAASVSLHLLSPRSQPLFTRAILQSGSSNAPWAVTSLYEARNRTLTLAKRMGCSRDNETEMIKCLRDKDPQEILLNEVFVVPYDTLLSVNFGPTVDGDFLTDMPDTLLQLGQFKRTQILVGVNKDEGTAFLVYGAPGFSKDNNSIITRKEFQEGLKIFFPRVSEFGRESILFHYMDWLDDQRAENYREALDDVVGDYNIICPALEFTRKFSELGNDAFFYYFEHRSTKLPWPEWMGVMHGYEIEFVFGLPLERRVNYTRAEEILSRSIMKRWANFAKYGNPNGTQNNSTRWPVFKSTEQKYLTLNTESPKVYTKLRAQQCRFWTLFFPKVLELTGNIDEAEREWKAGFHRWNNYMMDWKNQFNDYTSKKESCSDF

[2] = biological target: T1, Butyrylcholinesterase (EC 3.1.1.8, BChE) from equine serum (eqBChE); assay: Butyrylcholinesterase inhibition, Ellman's method; type: biochemical; settings: for IC50: eqBChE, BTCI substrate, pH 8.0, 37 °C, mean ± SD of three independent experiments
Protocol: The effect of the benzofuran derivatives was evaluated on the commercial enzyme from an animal source due to its low cost and remarkable similarity with the human enzyme.
The cholinesterase inhibition activity was executed using Ellman’s method, as previously described with slight modifications.
S-Butyrylthiocholine iodide (BTCI) and 5,5′-dithiobis-(2-nitrobenzoic) acid (DTNB) (Merck/Sigma-Aldrich) were used for the determination of the BChE activity. Butyrylcholinesterase (EC 3.1.1.8, BChE) was from equine serum (eqBChE) (Sigma-Aldrich). We used 96-well plates for analysis, to each well we added 70 μL phosphate-buffered (0.1 M, pH 8.0), 4 μL different concentration of the tested compounds or dimethyl sulfoxide (for control experiment), 6 μL enzyme (final concentration 0.15 U/mL in buffer), and 100 μL DTNB (1.5 mM final). The solution was preincubated for 5 min at 37 °C, then 20 μL BTCI 1.5 mM solution as the substrate was added to the reaction mixture. The absorbance change was measured at 405 nm, with a microplate reader FLUOstar OPTIMA (BMG Labtech, Offenburg, Germany). […] Each experiment was done in triplicate.
The statistical significance of differences was evaluated using one-way analysis of variation (one-way ANOVA), and Tukey’s multiple comparisons. Results were expressed as mean ± standard deviation (SD), and statistically significant differences were evaluated with p < 0.001 as a minimal significance level.

[3] = 2-phenylbenzofurans without spacer; cited from earlier work
[4] = read-out: IC50, inhibitory effect on BChE activity

SMILES: Oc1ccc(-c2cc3cc(Br)ccc3o2)cc1 [Compound 9A]
- BChE inhibitory activity (in words) [1, 3]: no activity; also recorded: negligible inhibitory activity; also recorded: no BChE inhibition
- IC50 ([1]; read-out: IC50, inhibitory effect on BChE activity; 2-phenylbenzofurans given for comparison; cited from earlier work): > 100 µM

SMILES: Oc1ccc(Cc2cc3cc(Br)ccc3o2)cc1 [Compound 9B, 5-bromo-2-(4-hydroxybenzyl)benzofuran]
- inhibitory activity, fold higher than 14A ([2]; BChE, ratio of IC50 values): about 4 fold
- inhibitory activity, times higher than galantamine ([2]; BChE, ratio of IC50 values): 10 times
- IC50 [2, 4]: 2.93 µM and 2.9 µM

SMILES: Oc1ccc(-c2cc3cccc(Br)c3o2)cc1 [Compound 10A]
- BChE inhibitory activity (in words) [1, 3]: negligible inhibitory activity

SMILES: Oc1ccc(Cc2cc3cccc(Br)c3o2)cc1 [Compound 10B]
- IC50 [2, 4]: 32.6 ± 2.04 µM

SMILES: Oc1ccc(-c2cc3cc(Cl)ccc3o2)cc1 [Compound 11A]
- IC50 ([1]; 2-phenylbenzofurans given for comparison; read-out: IC50, inhibitory effect on BChE activity; cited from earlier work): > 100 µM

SMILES: Oc1ccc(Cc2cc3cc(Cl)ccc3o2)cc1 [Compound 11B]
- IC50 [2, 4]: 55.7 ± 0.8 µM

SMILES: Oc1ccc(Cc2cc3cccc(Cl)c3o2)cc1 [Compound 12B]
- IC50 [2, 4]: 43 ± 5.65 µM

SMILES: Oc1cccc(-c2cc3cc(Br)ccc3o2)c1 [Compound 13A]
- IC50 ([2]; IC50, inhibitory effect on BChE activity): 10.6 ± 1.65 µM

SMILES: Oc1cccc(Cc2cc3cc(Br)ccc3o2)c1 [Compound 13B]
- IC50 [2, 4]: 39.9 ± 4.31 µM

SMILES: Oc1cccc(Cc2cc3cccc(Br)c3o2)c1 [Compound 14B]
- IC50 [2, 4]: 31.37 ± 0.15 µM

SMILES: Oc1cccc(Cc2cc3cc(Cl)ccc3o2)c1 [Compound 15B, 5-chloro-2-(3-hydroxybenzyl)benzofuran]
- IC50 [2, 4]: 27.8 ± 3.07 µM

SMILES: Oc1cccc(Cc2cc3cccc(Cl)c3o2)c1 [Compound 16B]
- IC50 [2, 4]: 61.7 ± 5.9 µM
